These results are taken from patent publication US9636021B2, “Flavonoid compounds of low toxicity for biological imaging applications” (The University of Akron, priority 2014, dated 2017).

Data set [1] deals with bovine serum albumin (BSA) (Bos taurus, UniProt P02769). As to the kind of experiment: fluorescence turn-on with BSA in PBS buffer. The class given is binding. The following applies: for detection limit (10% increase in fluorescence emission) / visual recognizable detection limit (S/N above 3:1): BSA; for F(+)/F(−) fluorescence intensity with BSA / without BSA: BSA 1.0 mg/ml; for F(+)/F(−) fluorescence intensity with BSA / without BSA / λabs(+) / λem(+) / λabs(−) / λem(−): 10 μM dye; for F(+)/F(−) fluorescence intensity with BSA / without BSA / fluorescence in the absence of BSA / λabs(+) / λem(+) / λabs(−) / λem(−): 10 mM PBS, 0.5% DMSO, pH 7.4; for fluorescence in the absence of BSA: aqueous buffer; for λabs(+) / λem(+): with BSA 1.0 mg/ml; for λabs(−) / λem(−): without BSA. As to the method: In the aqueous buffer (0.5% DMSO, 10 mM of PBS, pH=7.4), the BSA binding-induced fluorescence turn-on was so large that it could be easily seen by naked eye. […] The intramolecular charge transfer along the D-A conjugated backbone plays a very important role in the environment-sensitivity of the flavone. All the evidence consistently pointed to the flavone dye entering the hydrophobic site of BSA.
bovine serum albumin (BSA), sequence (P02769 25-607): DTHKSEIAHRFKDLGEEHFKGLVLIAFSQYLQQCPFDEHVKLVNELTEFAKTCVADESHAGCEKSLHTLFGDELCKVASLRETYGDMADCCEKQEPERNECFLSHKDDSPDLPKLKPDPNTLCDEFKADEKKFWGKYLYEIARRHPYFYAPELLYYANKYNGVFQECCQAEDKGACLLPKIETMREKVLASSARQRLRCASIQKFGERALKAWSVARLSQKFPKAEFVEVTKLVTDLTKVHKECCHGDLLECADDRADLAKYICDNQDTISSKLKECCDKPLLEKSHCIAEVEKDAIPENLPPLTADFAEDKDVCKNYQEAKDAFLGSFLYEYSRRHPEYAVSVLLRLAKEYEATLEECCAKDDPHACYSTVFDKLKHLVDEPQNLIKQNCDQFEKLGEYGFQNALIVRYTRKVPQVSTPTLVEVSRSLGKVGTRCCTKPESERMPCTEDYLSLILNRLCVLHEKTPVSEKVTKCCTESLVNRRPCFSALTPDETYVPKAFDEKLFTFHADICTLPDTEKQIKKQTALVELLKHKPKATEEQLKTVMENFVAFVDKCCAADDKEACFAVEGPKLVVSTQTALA
Generally, the detection limit can be defined as the analyte concentration at which a 10% increase in fluorescence emission can be measured.
Therefore, the detection limits of compounds 1-6 were 2.6, 0.14, 0.59, 0.09, 14, and 3.4 μg/mL, respectively. For Off/On type fluorescent sensor, the Signal-to-Noise (S/N) ratio above 3:1 is considered reliable for visual evaluation. The visual recognizable detection limits of compounds 1-6 were calculated as 78, 4.2, 17.7, 2.7, 420, and 102 μg/mL, respectively. The reference range for serum albumin concentration in human blood plasma is approximately 35-50 mg/mL. Even in fish, the concentration of serum albumins can reach 0.5-5 mg/mL. The detection limits of the compounds were much lower than serum albumin concentration, indicating the capability for actual blood sample testing.

Data set [2] is described as follows: absorbance and fluorescence spectra in DMSO. The format is physicochemical. The source says: The absorbance and fluorescence spectra of compounds 1-6 in dimethyl sulfoxide (DMSO) were investigated and the results are in Table 1.
A further data set has as its target dye-BSA complexes (Bos taurus, UniProt P02769). In words: photostability of dye-BSA complexes under continuous UV irradiation. The class given is physicochemical, bovine. The following applies: 365 nm, 500 μW/cm2, 10 μM dye, 1.0 mg/mL BSA. On the procedure: The photostability of flavone dyes 1-6 in the presence of BSA was also examined to evaluate the application for long-term imaging. The dye-BSA complexes (10 μM of compounds 1-6, 1.0 mg/mL of BSA in 10 mM PBS buffer containing 0.5% DMSO, pH=7.4) were placed in cuvette cells, then were continuously irradiated under a hand-held UV lamp (λ=365 nm, 500 μW/cm2).

dye-BSA complexes, sequence (P02769 25-607, one chain of several): as the sequence (P02769 25-607) above

Regarding `CCOCc1ccc2oc(-c3ccc(N(C)C)cc3)c(O)c(=O)c2c1` [compound 2, 2-(4-(dimethylamino)phenyl)-6-(ethoxymethyl)-3-hydroxy-4H-chromen-4-one], in data set [1], the “detection limit (10% increase in fluorescence emission)” value came to 0.14 µg/mL, the “visual recognizable detection limit (S/N above 3:1)” value (from here on “visual recognizable detection limit”) was 4.2 µg/mL, the “F(+)/F(−) fluorescence intensity with BSA / without BSA” value is reported as 740 and the “fluorescence in the absence of BSA” value is recorded as “almost no fluorescence”. Further, in data set [1], the “λabs(+)” value amounted to 415 nm, the “λem(+)” value is 506 nm, the “λabs(−)” value is 410 nm and the “λem(−)” value is recorded as 555 nm. In data set [2], this compound yielded a Φ of 14.1% and a λabs of 403 nm.

In the case of `Cc1ccc2oc(-c3ccc(N(C)C)cc3)c(O)c(=O)c2c1` [compound 3, 2-(4-(dimethylamino)phenyl)-3-hydroxy-6-methyl-4H-chromen-4-one], in data set [1], the “detection limit (10% increase in fluorescence emission)” value turned out to be 0.59 µg/mL, the “visual recognizable detection limit” value is 17.7 µg/mL, the “F(+)/F(−) fluorescence intensity with BSA / without BSA” value was determined as 170 and the “fluorescence in the absence of BSA” value is on record as “almost no fluorescence”. Further, in data set [1], the “λabs(+)” value is 409 nm, the “λem(+)” value worked out at 552 nm, the “λabs(−)” value is 400 nm and the “λem(−)” value is given as 582 nm. In addition, in data set [2], the Φ was 11.0% and the λabs was 404 nm.

With `CC(=O)Nc1ccc(-c2oc3ccccc3c(=O)c2O)cc1` [compound 5, N-(4-(3-hydroxy-4-oxo-4H-chromen-2-yl)phenyl)acetamide], the “photostability under UV irradiation” value on dye-BSA complexes was “fluorescence quenching”. In data set [1], the “detection limit (10% increase in fluorescence emission)” value is 14 µg/mL, the “visual recognizable detection limit” value is 420 µg/mL, the “F(+)/F(−) fluorescence intensity with BSA / without BSA” value turned out to be 7.0 and the “λabs(+)” value was found to be 365 nm. Moreover, in data set [1], the “λem(+)” value amounted to 514 nm, the “λabs(−)” value is given as 357 nm and the “λem(−)” value is recorded as 452 nm. In data set [2], this compound returned a Φ of 5.4%, a λabs of 363 nm and a λem of 505 nm.

For the compound `Nc1ccc(-c2oc3ccccc3c(=O)c2O)cc1` [compound 6, 2-(4-aminophenyl)-3-hydroxy-4H-chromen-4-one], at dye-BSA complexes, the “photostability under UV irradiation” value is reported as “fluorescence quenching”. In addition, in data set [1], the “detection limit (10% increase in fluorescence emission)” value is 3.4 µg/mL, the “visual recognizable detection limit” value came to 102 µg/mL, the “F(+)/F(−) fluorescence intensity with BSA / without BSA” value is on record as 29 and the “λabs(+)” value came out at 386 nm. In addition, in data set [1], the “λem(+)” value stood at 512 nm, the “λabs(−)” value is given as 373 nm and the “λem(−)” value amounted to 522 nm. Also, in data set [2], the Φ was determined as 7.2% and the λabs stood at 394 nm.
